Test systems include DLD-1; KM-20L2; LXFL 529; SNB-78; XF498; DMS-114; DMS-273; HOP-18; RXF 631.
Common to all, as to assay: DTP human tumour cell line panel, 48 h

In general, GI50 refers to the concentration at which growth is held to half of that of the control.

Each structure is given as a SMILES string.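 Where inhibition never reached the appropriate level, the endpoint shown equals the highest concentration tested. Otherwise, values were interpolated linearly from a five-concentration, 48-hour dose response in 96-well plates. At the GI50, growth is halved.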 Calls of active or inactive are those of the source. No stated cut-off is given here; in the data, active = GI50 up to about 1.1 µM and inactive = higher.

In the case of `COc1cc2c(cc1OC)C1Cc3cc(OC)c(OC)cc3C(C2)N1C`, the GI50 with DLD-1, with KM-20L2, with LXFL 529, in the assay on SNB-78 and in the assay on XF498 was > 100 µM (inactive) throughout.

As for `CNS(=O)(=O)NNS(=O)(=O)c1ccccc1`, the GI50 in the assay on DLD-1, in the assay on DMS-114, in the assay on DMS-273, in the assay with HOP-18, in the assay with KM-20L2 and in the assay on LXFL 529 was > 100 µM (inactive) throughout. Further, the GI50 with XF498 is > 100 µM (inactive).

As for `Cc1nc2c(s/c(=N\N)n2-c2ccccc2)c(=O)n1C`, the GI50 in the assay with DMS-114, in the assay on DMS-273, with KM-20L2, in the assay on LXFL 529, with SNB-78 and with XF498 was > 100 µM (inactive) each time.

`O=C1C(=O)C(Br)(Br)C(Br)=C1Br`: the GI50 with DLD-1 is 18.8 µM (inactive); with DMS-114 it was 18.8 µM (inactive); with DMS-273, 22.3 µM (inactive); with HOP-18 it was 15.6 µM (inactive); with KM-20L2 it was 15 µM (inactive); in the assay with LXFL 529, 15.2 µM (inactive). In addition, the GI50 in the assay on RXF 631 is 37.9 µM (inactive).

Consider `Cc1ccc(C)c(N2C(=O)C(=O)C(c3nc4ccccc4s3)/C(=N\c3cccc4c(=O)[nH][nH]c(=O)c34)C2=O)c1` (centres undefined), for which the GI50 with DLD-1, in the assay on DMS-114, with DMS-273, with HOP-18, in the assay on KM-20L2 and in the assay on LXFL 529 was > 100 µM (inactive) throughout. For the same compound, the GI50 with RXF 631 is > 100 µM (inactive).

With `C=C(CCCCC)CN1CCCC1[C@@](C)(O)CC(=O)OCC` (some centres undefined), the GI50 in the assay with DLD-1, in the assay on DMS-114, in the assay with DMS-273, in the assay with HOP-18, in the assay with KM-20L2 and in the assay with LXFL 529 was > 100 µM (inactive) each time. Also, the results for the GI50 in the assay on SNB-78 and in the assay with XF498 were > 100 µM (inactive) and > 76.6 µM (inactive), respectively.

As to `COc1ccc(C2=CN3CCC[C@H]3C=C2c2cc(O)c(OC)c(OC)c2)cc1OC`, the 50% growth inhibitory concentration (GI50) is 0.00316 µM (active) in the assay with DLD-1; 0.00385 µM (active) in the assay on DMS-114; 0.00354 µM (active) in the assay on DMS-273; 0.00427 µM (active) in the assay with HOP-18; 0.00887 µM (active) in the assay on KM-20L2; 0.00389 µM (active) in the assay with LXFL 529. Moreover, the GI50 in the assay with SNB-78 was 0.00385 µM (active).

For the compound `C=C1C(C)C2C(Cc3ccccc3)NC(=O)C23OC(=O)/C=C\CC(=O)CCC(C)C/C=C/C3C1O` (centres undefined), the GI50 was 1.18 µM (inactive) in the assay on DLD-1; 2.42 µM (inactive) in the assay on DMS-114; 2.34 µM (inactive) in the assay on DMS-273; 0.326 µM (active) with HOP-18; 3.66 µM (inactive) in the assay with KM-20L2; 0.36 µM (active) in the assay with SNB-78. For the same compound, the GI50 in the assay on XF498 was 0.287 µM (active).

`CC1(C(=O)NCCN(CCNC(=O)C2(C)CC3(C)CC(C)(C2)C(=O)NC3=O)CCNC(=O)C2(C)CC3(C)CC(C)(C2)C(=O)NC3=O)CC2(C)CC(C)(C1)C(=O)NC2=O` (centres undefined): the GI50 in the assay on DMS-114 was > 100 µM (inactive); with DMS-273, > 100 µM (inactive); with HOP-18 it was 94.4 µM (inactive); in the assay on KM-20L2, > 100 µM (inactive); in the assay with LXFL 529 it was > 100 µM (inactive); in the assay on SNB-78, > 100 µM (inactive). In addition, the GI50 in the assay on XF498 was > 100 µM (inactive).

`CCOC(=O)NC(=O)c1cn(CCOCCOC(=O)NCCCCCCNC(=O)OCCOCCn2cc(C(=O)NC(=O)OCC)c(=O)[nH]c2=O)c(=O)[nH]c1=O`: the GI50 in the assay with DLD-1, in the assay with DMS-114, with DMS-273, with HOP-18, in the assay on KM-20L2 and with LXFL 529 was > 100 µM (inactive) throughout. Also, the GI50 in the assay on RXF 631 and with SNB-78 was > 100 µM (inactive) throughout.

For `N#CNc1nc(N)c(-c2ccc(Cl)cc2)c(C(=O)Nc2nccs2)n1`, the GI50 in the assay on DLD-1, with DMS-114, with DMS-273, with HOP-18, with KM-20L2 and in the assay with LXFL 529 was > 100 µM (inactive) each time. In addition, the GI50 in the assay on SNB-78 and in the assay with XF498 was > 100 µM (inactive) in each case.

Consider `Cc1nn(C(=O)CC(=O)Nc2ccc(Cl)cc2)c(C)c1/N=N/c1ccccc1C(=O)O`, for which the GI50 in the assay with DLD-1, in the assay with DMS-114, with DMS-273, with KM-20L2, in the assay with LXFL 529 and in the assay with SNB-78 was > 100 µM (inactive) throughout.

In the case of `CCO/C([O-])=C(\C(=O)c1ccccc1)[n+]1c(C)n(C)c2ccccc21`, the GI50 in the assay on DLD-1, in the assay on DMS-114, with DMS-273, with HOP-18, in the assay on KM-20L2 and in the assay on LXFL 529 was > 100 µM (inactive) each time. In addition, the GI50 in the assay with SNB-78 is > 100 µM (inactive).

`CC(=O)n1c2ccccc2c2nc3nc(Oc4ccc(C)cc4)c4ccccc4c3cc21`: the GI50 was > 100 µM (inactive) with DLD-1; > 100 µM (inactive) in the assay on DMS-114; > 100 µM (inactive) in the assay with DMS-273; > 100 µM (inactive) with KM-20L2; 97.9 µM (inactive) with LXFL 529; 42.5 µM (inactive) in the assay on SNB-78.

`COC(=O)c1ccc(Cl)cc1NC(=O)C1CCCCC1`: the GI50 in the assay with DMS-114, in the assay on DMS-273, with KM-20L2, in the assay on LXFL 529 and in the assay on SNB-78 was > 100 µM (inactive) each time.

As for `CCCCNC(=O)CCN(C(=O)O)S(=O)(=O)c1ccc(NC(=O)c2ccccc2)cc1`, the GI50 in the assay on DLD-1 was > 100 µM (inactive); with DMS-114, > 100 µM (inactive); in the assay with DMS-273, 30.4 µM (inactive); with HOP-18, > 100 µM (inactive); in the assay with KM-20L2 it was > 100 µM (inactive); in the assay with LXFL 529, > 100 µM (inactive). The GI50 in the assay with SNB-78 and in the assay with XF498 was > 100 µM (inactive) in each case.

Consider `C1C[N+]23CCC[N+]2(C1)CCC3` (centres undefined), for which the GI50 in the assay on DLD-1, with DMS-114, in the assay on DMS-273, in the assay with HOP-18, in the assay on KM-20L2 and in the assay with LXFL 529 was > 100 µM (inactive) each time. Besides, the GI50 in the assay on RXF 631 and in the assay with SNB-78 was > 100 µM (inactive) in each case.

Turning to `CO[C@H]1[C@H](O)[C@H](O[C@H]2CC[C@@]3(C)[C@H](CC[C@@H]4[C@@H]3CC[C@]3(C)[C@@H](C5=CC(=O)OC5)CC[C@]43O)C2)O[C@@H](C)[C@@H]1O` [NERIIFOLIN], the GI50 with DLD-1 was 0.00184 µM (active); in the assay on DMS-114 it was 0.000138 µM (active); in the assay with DMS-273, 0.000548 µM (active); in the assay with HOP-18 it was 0.000476 µM (active); with KM-20L2, 0.00311 µM (active); in the assay on LXFL 529 it was 0.00135 µM (active). In the assay with SNB-78, the 50% growth inhibitory concentration (GI50) was 0.000552 µM (active).

The record behind these values is ChEMBL document CHEMBL1201862, “PubChem BioAssay data set” (2004).
